Measurements reported in paper PMC7395068, “The evolution of strategies to minimise the risk of human drug-induced liver injury (DILI) in drug discovery and development” (Archives of Toxicology, 2020).
Where two headings read alike, the source gives them in different places.

Experiments:
[1] = test system: HepG2; design: method as in Albrecht 2019; conditions: In vitro Assay; ref Albrecht 2019; cited from earlier work
[2] = test system: THLE-Null and THLE-3A4 cells; conditions: In vitro Assay; ref Gustafsson 2014; cited from earlier work
[3] = test system: HepG2 C3A spheroid, BSEP, Glu/Gal in HepG2 cells, bioactivation; conditions: cited from earlier work
[4] = test system: PHH; conditions: In vitro Assay; ref Albrecht 2019; cited from earlier work
[5] = plasma free fraction; cited from earlier work
[6] = test system: HepG2 cells; conditions: cited from earlier work
[7] = test system: HepaRG spheroids; test: Combined HCI (HCS) and cellular ATP 3D assay in HepaRG spheroids; conditions: for AC50 / minimal effective concentration: Homo sapiens
[8] = test system: PHH liver spheroid; design: method as in Foster et al. 2019; conditions: liver-chip of comparable sensitivity, ref Foster et al. 2019; cited from earlier work
[9] = test system: rBsep; conditions: In vitro Assay; ref Dawson 2012; cited from earlier work
[10] = test system: HepG2 cells; conditions: cited from earlier work; remark: listed apart in the source
[11] = cited from earlier work
[12] = test system: PHH spheroids; conditions: In vitro Assay; ref Vorrink 2018; cited from earlier work
[13] = test system: PHH; conditions: cited from earlier work
[14] = Plasma free fraction (fu) and unbound Cmax (Cmax,u); assay type: in vitro ADME, human; conditions: unbound plasma Cmax
[15] = cited from earlier work; remark: listed apart in the source
[16] = test system: HepaRG cells; conditions: HepaRG cells, BMCs in relation to 10 × human Cmax.tot; ref National Toxicology Program; cited from earlier work
[17] = test system: hLiMTs; test: Combined HCI (HCS) and cellular ATP 3D assay in hLiMTs; conditions: for AC50 / minimal effective concentration: Homo sapiens
[18] = test system: isolated mouse liver mitochondria; conditions: In vitro Assay; ref Porceddu 2012; cited from earlier work
[19] = test system: HepG2 cells; conditions: cited from earlier work; remark: listed apart in the source
[20] = cited from earlier work; remark: listed apart in the source
[21] = test system: hLiMTs; conditions: cited from earlier work
[22] = Microtissue model structural based (HCI), combined HCS and ATP, MEC < 25 × Cmax.tot cut-off
[23] = In vitro Assay, ref Proctor 2017

HepaRG <25x Avg Cmax ATP ([7]; HepaRG, ATP endpoint, cut-off <25x Avg Cmax): +ve
HepaRG <100x Avg Cmaxu ATP ([7]; HepaRG, ATP endpoint, cut-off <100x Avg Cmaxu): +ve (<100x Avg Cmaxu)
HepaRG <25x Avg Cmax HCS ([7]; HepaRG, HCS endpoints, cut-off <25x Avg Cmax): +ve
HepaRG <100x Avg Cmaxu HCS ([7]; HepaRG, HCS endpoints, cut-off <100x Avg Cmaxu): +ve (<100x Avg Cmaxu)
HepaRG <25x Avg Cmax All ([7]; HepaRG, all endpoints (ATP and HCS), cut-off <25x Avg Cmax): +ve
HepaRG Cmax max All ([7]; HepaRG, all endpoints, Cmax max used): +ve
HepaRG Cmax min All ([7]; HepaRG, all endpoints, Cmax min used): +ve
HepaRG <10 uM All ([7]; HepaRG, all endpoints, cut-off <10 uM): -ve
HepaRG <100x Avg Cmaxu All ([7]; HepaRG, all endpoints, cut-off <100x Avg Cmaxu): +ve (<100x Avg Cmaxu)
Human plasma Cmax,u [14]: 139.840 µM
hLiMTs <25x Avg Cmax ATP ([17]; hLiMTs, ATP endpoint, cut-off <25x Avg Cmax): +ve
hLiMTs <100x Avg Cmaxu ATP ([17]; hLiMTs, ATP endpoint, cut-off <100x Avg Cmaxu): +ve (<100x Avg Cmaxu)
hLiMTs <25x Avg Cmax HCS ([17]; hLiMTs, HCS endpoints, cut-off <25x Avg Cmax): +ve
hLiMTs <100x Avg Cmaxu HCS ([17]; hLiMTs, HCS endpoints, cut-off <100x Avg Cmaxu): +ve (<100x Avg Cmaxu)
hLiMTs <25x Avg Cmax All ([17]; hLiMTs, all endpoints (ATP and HCS), cut-off <25x Avg Cmax): +ve
hLiMTs Cmax max All ([17]; hLiMTs, all endpoints, Cmax max used): +ve
hLiMTs Cmax min All ([17]; hLiMTs, all endpoints, Cmax min used): +ve
hLiMTs <10 uM All ([17]; hLiMTs, all endpoints, cut-off <10 uM): -ve
hLiMTs <100x Avg Cmaxu All ([17]; hLiMTs, all endpoints, cut-off <100x Avg Cmaxu): +ve (<100x Avg Cmaxu)
SMILES: CC(=O)Nc1ccc(O)cc1 [acetaminophen]
Cytotoxicity HepG2 48 hrs [1]: +VE
THLE-Null [2]: -VE
Bayesian Machine Learning DILI prediction, Williams (2019) ([3]; Bayesian modeling, ref Williams et al. 2019): +VE
Bayesian Machine Learning ([3]; In vitro Assay, ref Williams 2019): +VE
Cytotoxicity PHH 48 hrs [4]: +VE
fu [5]: 0.920
Structural based (HCI) ([6]; In vitro Assay, ref Tolosa 2012): +VE
DILI in vitro assay prediction, Tolosa (2012) ([6]; Structural based (HCI), HepG2, ref Tolosa et al. 2012): +VE
AC50 ([7]; HepaRG, read-out: ATP endpoint AC50): 760 µM
minimal effective concentration ([7]; HepaRG, read-out: ATP endpoint MEC): 187 µM
AC50 ([7]; HepaRG, read-out: HCS endpoint AC50): 3100 µM
minimal effective concentration ([7]; HepaRG, read-out: HCS endpoint MEC): 656 µM
DILI prediction HepaRG spheroids (HCS-MEC) [7, 22]: +VE (MEC < 25 × Cmax.tot cut-off)
detection in 3D microtissues [8]: detected
Inhibition of rBsep cutoff<1& cmax u>.2 [9]: -VE
Inhibition of rBsep cutoff<3 [9]: -VE
Structural based (HCI) ([10]; In vitro Assay, ref Persson 2013): -VE
DILI in vitro assay prediction, Persson (2013) ([10]; Structural based (HCI), HepG2, ref Persson et al. 2013): -VE
Assigned DILI category ([11]; Chen et al. 2016 or literature alignment, ref Chen et al. 2016): 3
In vivo DILI ([11]; […]): +VE
In vivo DILI ([11]; ref Albrecht 2019): +VE
In vivo DILI ([11]; ref Dawson 2012): +VE
In vivo DILI ([11]; ref Garside 2014): +VE
In vivo DILI ([11]; ref Gustafsson 2014): +VE
In vivo DILI ([11]; ref O'Brien 2006): +VE
In vivo DILI ([11]; ref Persson 2013): +VE
In vivo DILI ([11]; ref Porceddu 2012): +VE
In vivo DILI ([11]; ref Proctor 2017): +VE
In vivo DILI ([11]; ref Schadt 2015): +VE
In vivo DILI ([11]; ref Tolosa 2012): +VE
In vivo DILI ([11]; ref Vorrink 2018): +VE
In vivo DILI ([11]; ref Williams 2019): +VE
In vivo DILI ([11]; ref Xu 2008): +VE
hLiMTs ATP <20 x Cmax [12]: +VE (IC20 < 20 × Cmax.tot cut-off)
PHH/100uM, Proctor (2017) ([13]; 2D PHH, ATP, IC50 threshold 100 µM, ref Proctor et al. 2017): -VE
PHH ATP <100uM [13, 23]: +VE (IC50 threshold of 100 µM)
DILI severity category (Chen et al. [2016]) ([15]; LTKB DILIrank category, ref Chen et al. 2016): Most
DILI severity category ([15]; human DILI severity, ref Chen et al.): Most
DILI +VE (5-8), DILI -VE (-4) ([15]; ref Chen 2016): +VE
DILI severity category ([15]; ref Chen 2016): vMost-DILI-Concern
DILI identification by high-throughput transcriptomics [16]: identified
AC50 ([17]; read-out: ATP endpoint AC50): 1240 µM
minimal effective concentration ([17]; read-out: ATP endpoint MEC): 292 µM
AC50 ([17]; read-out: HCS endpoint AC50): 4340 µM
minimal effective concentration ([17]; read-out: HCS endpoint MEC): 456 µM
DILI prediction hLiMTs (HCS-MEC) [17, 22]: +VE (MEC < 25 × Cmax.tot cut-off)
in vitro data EC2<=1x Cmax [18]: +VE
in vitro data EC20<=2uM [18]: -VE
Structural based (HCI) ([19]; In vitro Assay, ref O'Brien 2006): +VE
DILI in vitro assay prediction, O'Brien (2006) ([19]; Structural based (HCI), HepG2, ref O'Brien et al. 2006): +VE (lowest HCI endpoint IC50 (or in the absence of dose–response < 100 µM) < 30 × total human plasma exposure levels (Cmax.tot))
Cmax ([20]; read-out: Cmax.tot, value used by Albrecht, ref Albrecht et al. 2019): 109 µM
Cmax ([20]; read-out: Human plasma Cmax, total plasma Cmax.tot, median of 9 literature references): 152 µM
hLiMTs ATP <100uM [21, 23]: -VE
hLiMTs/100uM, Proctor (2017) ([21]; hLiMTs, ATP, IC50 threshold 100 µM, ref Proctor et al. 2017): -VE
